Patent US10933079B2, “Oligonucleotide analogues incorporating 5-aza-cytosine therein” (Astex Pharmaceuticals, Inc., priority 2005, dated 2021)

Experiments:
[1] = cited from earlier work
[2] = tested on: CMV-EE210 cell line containing the epigenetically silenced GFP transgene (CMV promoter); assay: cell-based GFP assay for DNA methylation (reactivation of silenced GFP transgene)
Description: The demethylating activity of DpG and GpD di-, tri-, and tetranucleotides were tested in a cell-based GFP (green fluorescent protein) assay. This assay, which is schematically illustrated in FIG. 25, has a GFP gene regulated by the CMV promoter and is sensitive to the methylation of CpG sites within the promoter. A decrease in methylation resulting from exposure to a methylation inhibitor leads to GFP expression and is readily scored. Specifically, the CMV-EE210 cell line containing the epigenetically silenced GFP transgene was used to assay for reactivation of GFP expression by flow cytometry. CMV-EE210 was made by transfecting NIH 3T3 cells with the pTR-UF/UF1/UF2 plasmid (Zolotuhin et al., 1996), which is comprised of pBS(+) (Stratagene, Inc.) containing a cytomegalovirus (CMV) promoter driving a humanized GFP gene adapted for expression in mammalian cells. After transfection, high-level GFP expressing cells were initially selected by FACS analysis and sorting using a MoFlo cytometer (Cytomation, Inc.). Decitabine, potent inhibitor of mammalian DNMT1, was used as a positive control. […] Wells were scored g1 positive if (10%) of viable cells express GFP, g2 positive if 30% of viable cells express GFP and g3 if >75% of the viable cells express GFP. […]

For Nc1ncn([C@H]2C[C@H](O)[C@@H](CO)O2)c(=O)n1 [Decitabine, 5-aza-2′-deoxycytidine], which total urinary excretion ([1]; humans) is on record?
The total urinary excretion was “less than 1 % of the administered dose”.

And the “penetration into the cerebrospinal fluid” value ([1]; man, end of a 36-hour intravenous infusion)?
Its value is 14-21 % of the plasma concentration.

And the “GFP Expression Level” value ([2]; CMV-EE210 cells, three days, decitabine at 1 μM, test compound at 30-50 μM, fluorescent microscope scoring)?
Its value is “g3 (g3 if >75% of the viable cells express GFP)”.

And the IC50 ([2]; GFP 50: dose at which the GFP expression level goes from g3 to g1/2, preliminary screening)?
Its IC50 is 500 nM.
